In patent US8748177B2, “Compositions for proliferation of cells and related methods” (The Hospital for Sick Children, priority 2008, dated 2014):
Entries after “also recorded” stand apart in the source; their conditions may differ. Structures can show the parent of a compound that is named as a salt.

Experiments:
human SKPs [1] = test: Dose-response curves for proliferation of human SKPs in presence of EGF and FGF2; type: cell-based; details: for proliferation of human SKPs: 100 nM, compared to cells grown in the absence of the agent
Description: The proliferative effects of MG 624 on SKPs and neuroblastoma tumor initiating cells have also been studied in detail. Dose response curves for proliferation of human SKPs and neuroblastoma tumor initiating cells in response to MG 624 were generated in the presence of EGF and FGF2. At 200 nM MG 624, SKP cell proliferation is enhanced (FIG. 5).
To characterize enhancement of proliferation brought about by the agents identified above, dose-response curves for MG624, GSK3β, pramoxine, kaempferol, and alprostadil in presence of EGF and FGF2 were generated (FIGS. 6A-6E).

C57BL/6 mice = test: Topical application to depilated dorsal skin: hair length, dermal thickness, anagen follicles, follicle density; type: in vivo, mouse; details: for anagen hair cycle (anagen hair follicles by morphology) / follicle density (number of follicles per mm): topical once daily for 3 weeks; for hair length distribution histogram relative to control group: day 23, topical once daily
Description: We tested compounds to determine whether their topical application could induce anagen hair cycle and follicle density. Briefly, seven-week old C57BL/6 mice were used. […] Mice were induced to enter anagen phase by being depilated in the dorsal region. Compounds ([…]) were topically applied onto the dorsal skin once daily for 3 weeks. Three mice were used for each compound group. Approximately 30 hairs from each mouse were plucked at specific days (day 16, day 19, and day 23) and the hair length was measured. Additionally, skin samples for cryosectioning were obtained from the treated dorsal region of each mouse.
All compounds were resuspended in vehicle solution (1.2 propanediol:EtOH:H20 (40:20:40)). Compound concentrations were as follows: alprostadil 40 μg/mL; kaempferol 28.6 μg/mL; pramoxine 329.8 μg/mL; MG 624 45.13 μg/mL. Also tested was Gold Bond topical anesthetic cream. Latanoprost (150 μg/mL) was used as a positive control and AKT inhibitor A443654 (100 μM) was used as a negative control.
FIG. 19 is a series of photomicrographs and graphs showing that topical application of the indicated compounds induces dermal thickness. Dorsal skin of animals topically treated with compounds described above, then isolated, cryosectioned and stained with hematoxylin and eosin. Dermal thickness was manually measured randomly through the slices. A mean of three measurements through the slice were performed and about 20-30 slices were analyzed for each mouse within each compound group.
FIG. 20 is a series of photomicrographs and graphs showing that alprostadil, kaempferol, pramoxine, or MG 624 induces anagen hair cycle and follicle density. The density is expressed as number of follicles per mm whereas the anagen hair follicles are determined by morphology.

[2] = tested on: xenograft neuroblastoma tumors; test: Tumor formation, xenograft neuroblastoma tumors in vivo; design: species or system human; details: FIG. 4C
human SKPs [3] = test: In vitro sphere assay, human SKPs from foreskin; type: cell-based; details: treated for seven days, Hoechst stain, compared to vehicle control
Description: (§1) FIG. 7 is a schematic illustration of the in vitro sphere assay. SKPs were isolated from mouse back, whisker and human foreskin and allowed to grow in spheres. After 2-3 passages, spheres were dissociated and 3000 cells were plated in each well of a 96-well plate. Cells were then treated in triplicate with different concentrations of drugs or only with vehicle DMSO. Drugs were applied again on day 3 and the number of spheres was analyzed on day 7.
as §1, with “SKPs” for “FIG. 7 is a schematic illustration of the in vitro sphere assay. SKPs”, “whisker,” for “whisker”, “96 well” for “96-well”, “or” for “or only”, “(DMSO) only.” for “DMSO.”, “and” for “and the”
Sphere size is […] with, and is thus a measure of, cell proliferation. SKPs were isolated from human foreskin and allowed to grow in spheres. After 2-3 passages, spheres were dissociated and 3000 cells were plated in each well of a 96 well plate. Cells were then treated in triplicate with (a) 100 nM of a single drug, (b) a combination of drugs in which each drug is present at a concentration of 100 nM, or (c) vehicle (DMSO). Drugs were applied again on day 3. To assess how well cells proliferate within the sphere, the size of spheres was analyzed on day 7. […]

Sox2-EGFP mice = test: Single agent topical application, hair length in shaved Sox2-EGFP mice; type: in vivo, mouse; details: for hair length distribution histogram relative to control group: day 23, classes of 200 μm; for hair length: topical daily, days 16, 19 and 23, compared to control mice
Description: Sox2-EGFP mice, 7-8 weeks old, were shaved on the dorsal back to synchronize the hair cycle, and kaempferol (Kae) or alprostadil (Alp) was topically applied daily. Control mice were treated with vehicle only. At days 16, 19, and 23, about 30-40 hairs were plucked from each mouse, and their length was measured. Three or four mice were used in each group. […] Hair length promoted by the compounds on day 23 is shown in distribution histograms relative to the control group. Hair length was binned in classes of 200 μm, and each class was expressed as a percentage of total hair population.

SMILES	proliferation of human SKPs (human SKPs [1])	SKP proliferation (human SKPs [1]; 200 nM)	anagen hair cycle (anagen hair follicles by morphology) (C57BL/6 mice)	follicle density (number of follicles per mm) (C57BL/6 mice)	tumor formation [2]	size of human SKP spheres (human SKPs [3])	hair length distribution histogram relative to control group (C57BL/6 mice)	hair length distribution histogram relative to control group (Sox2-EGFP mice)	hair length (Sox2-EGFP mice)
CC[N+](CC)(CC)CCOc1ccc(/C=C/c2ccccc2)cc1.[I-] [MG 624]	enhanced proliferation	enhanced; also recorded: increased	induces	induces	–	–	–	–	–
CC[C@]1(O)C[C@@H]2CN(CCc3c([nH]c4ccccc34)[C@@](C(=O)OC)(c3cc4c(cc3OC)N(C)[C@H]3[C@@](O)(C(=O)OC)[C@H](OC(C)=O)[C@]5(CC)C=CCN6CC[C@]43[C@@H]65)C2)C1 [vinblastine]	–	–	–	–	inhibition of tumor formation	–	–	–	–
CCCCOc1ccc(OCCCN2CCOCC2)cc1 [Pramoxine hydrochloride, Pramoxine]	enhanced proliferation	–	induces	induces	–	–	–	–	–
O=c1c(O)c(-c2ccc(O)cc2)oc2cc(O)cc(O)c12 [Kaempferol]	enhanced proliferation	–	induces	induces	–	increase the size of human SKP spheres	shift versus longer hair length	shift to longer hair lengths	increase in hair length
CCCCC[C@H](O)/C=C/[C@H]1[C@H](O)CC(=O)[C@@H]1CCCCCCC(=O)O [Alprostadil, alprostadil]	enhanced proliferation	–	induces	induces	–	increase the size of human SKP spheres	shift versus longer hair length	shift to longer hair lengths	increase in hair length
